These results are taken from ChEMBL document CHEMBL4004849, “Tetrazolylmethyl quinolines: Design, docking studies, synthesis, anticancer and antifungal analyses” (2017).

Calls of active or inactive are those of the source. The rule behind the calls is not given here.

Type in all cases: functional
In one experiment the test system is SR. Nature of the experiment: Growth inhibition of human SR cells at 10^-5 M incubated for 48 hrs by sulforhodamine B assay relative to control.
The test system of another experiment is NCI-H226. Briefly: Growth inhibition of human NCI-H226 cells at 10^-5 M incubated for 48 hrs by sulforhodamine B assay relative to control.
The test system of the next experiment is CAKI-1. Nature of the experiment: Growth inhibition of human Caki1 cells at 10^-5 M incubated for 48 hrs by sulforhodamine B assay relative to control.
Another experiment relates to Aspergillus fumigatus. Briefly: Antifungal activity against Aspergillus fumigatus at 100 ug/ml by disc diffusion method. As to conditions: read-out: IZ.
A further experiment relates to SK-OV-3. Briefly: Growth inhibition of human SKOV3 cells at 10^-5 M incubated for 48 hrs by sulforhodamine B assay relative to control.
Another experiment deals with SF-268. Briefly: Growth inhibition of human SF268 cells at 10^-5 M incubated for 48 hrs by sulforhodamine B assay relative to control.
The subject of another experiment is MDA-MB-435. Briefly: Growth inhibition of human MDA-MB-435 cells at 10^-5 M incubated for 48 hrs by sulforhodamine B assay relative to control.
The test system of another experiment is OVCAR-3. Briefly: Growth inhibition of human OVCAR3 cells at 10^-5 M incubated for 48 hrs by sulforhodamine B assay relative to control.
A further experiment concerns K562. Briefly: Growth inhibition of human K562 cells at 10^-5 M incubated for 48 hrs by sulforhodamine B assay relative to control.
The next experiment deals with SN12C. Nature of the experiment: Growth inhibition of human SN12C cells at 10^-5 M incubated for 48 hrs by sulforhodamine B assay relative to control.
Another experiment has as its system HT-29. Nature of the experiment: Growth inhibition of human HT-29 cells at 10^-5 M incubated for 48 hrs by sulforhodamine B assay relative to control.
A further experiment deals with DU-145. Nature of the experiment: Growth inhibition of human DU145 cells at 10^-5 M incubated for 48 hrs by sulforhodamine B assay relative to control.
A further experiment deals with Malme-3M. Nature of the experiment: Growth inhibition of human MALME-3M cells at 10^-5 M incubated for 48 hrs by sulforhodamine B assay relative to control.

Regarding `Clc1nc2ccccc2cc1Cn1nnc(CSc2ccccc2)n1`, the “growth inhibition (GI)” value with SR, in the experiment on NCI-H226, in the experiment on CAKI-1, in the experiment on SK-OV-3, in the experiment on SF-268 and in the experiment on MDA-MB-435 was “Active” throughout. The “growth inhibition (GI)” value with OVCAR-3, with K562, in the experiment on SN12C, in the experiment on HT-29, in the experiment with DU-145 and with Malme-3M was “Active” throughout. Also, in the experiment on Aspergillus fumigatus, the zone of inhibition at 100 µg/mL was 15 mm.
With `Clc1nc2ccc(Br)cc2cc1Cn1nnnc1Cc1ccccc1`, the “growth inhibition (GI)” value with SR, in the experiment with NCI-H226, with CAKI-1, in the experiment with SK-OV-3, in the experiment with SF-268 and in the experiment with MDA-MB-435 was “Active” each time. The “growth inhibition (GI)” value with OVCAR-3, in the experiment with K562, with SN12C, in the experiment on HT-29, in the experiment on DU-145 and in the experiment on Malme-3M was “Active” throughout. Further, the zone of inhibition at 100 µg/mL in the experiment with Aspergillus fumigatus was 13 mm.
